Here are results for eleven compounds from ChEMBL document CHEMBL1159285, “Identification of 3-hydroxy-3-methylglutaric acid (HMG) as a hypoglycemic principle of Spanish moss (Tillandsia usneoides)” (J Nat Prod, 1995).

Counter-ions that a name gives are not always drawn. Some results are limits rather than exact numbers.

The test system of series [1] is Mus musculus. Nature of the series: Hypoglycemic activity in Swiss-Webster mouse assessed as change plasma glucose level at 250 mg/kg, ip after 4 hrs. In kind it is functional. To be noted: route intraperitoneal.
Series [2] concerns Artemia. Nature of the series: Toxicity in brine shrimp. To be noted: in vivo. In kind it is organism-based.
Series [3] in a line: Acute toxicity in po dosed mouse. The class given is organism-based. Particulars: in vivo.
A short description of series [4]: Acute toxicity in ip dosed mouse. In kind it is organism-based. Particulars: in vivo.
The species entered for series [5] is Homo sapiens. Nature of the series: Antihypercholesterolemic activity in patient with familial hypercholesterolemia assessed as decrease in plasma cholesterol at 2250 mg/day in 3 divided doses for 8 weeks. The arrangement: scale not given: the % may be the effect or the level left. The class given is functional.
The species named for series [6] is Homo sapiens. Nature of the series: Antihypercholesterolemic activity in patient with familial hypercholesterolemia assessed as decrease in plasma cholesterol at 3000 mg/day in 3 divided doses for 8 weeks. The class given is functional. The arrangement: scale not given: the % may be the effect or the level left.
Series [7] is filed under the species Homo sapiens. The experiment in a line: Toxicity in patient with familial hypercholesterolemia at 750 to 2250 mg/day in 3 divided doses for 8 weeks. In kind it is organism-based. Particulars: in vivo, 1344 h.
Series [8] relates to Mus musculus. The experiment in a line: Hypoglycemic activity in Swiss-Webster mouse assessed as change plasma glucose level at 62.5 mg/kg, ip after 4 hrs. In kind it is functional. Particulars: route intraperitoneal.
Series [9] has as its system Mus musculus. Nature of the series: Hypoglycemic activity in Swiss-Webster mouse assessed as change plasma glucose level at 125 mg/kg, ip after 4 hrs. To be noted: route intraperitoneal. The class given is functional.

Turning to `COC(=O)C(O)(CC(=O)O)CC(=O)O`, in series [1], the Activity was -7.4%.
On to `CCOC(=O)C(O)(CC(=O)O)CC(=O)O`, for which the Activity in series [1] is given as -6.6%.
The same measure, in the same setting: then `COC(=O)CC(O)(CC(=O)OC)C(=O)OC`, with 29%.
For orientation: LC50 means the concentration lethal to half of the exposed cells or organisms. In the case of `COc1cc(-c2oc3cc(O[C@@H]4O[C@H](CO)[C@@H](O)[C@H](O)[C@H]4O)c(OC)c(O)c3c(=O)c2OC)cc(OC)c1O`, the Activity in [1] is on record as -1%. The LC50 in series [2] is 420 ppm.
Take `CCOC(=O)CC(O)(CC(=O)O)C(=O)OCC` (stereo not drawn): the Activity in [1] was -17.3%.
In the case of `COC(=O)CC(O)(CC(=O)O)C(=O)OC` (stereo not drawn), the Activity in series [1] is recorded as 35.8%.
With `O=C(O)CC(O)(CC(=O)O)C(=O)O` [CITRIC ACID], the Activity in [1] came to 47.3%. Also, the LC50 in series [2] was 50 ppm.
On to `Cc1cn([C@H]2C[C@H](O)[C@@H](CO)O2)c(=O)[nH]c1=O` [DOXRIBTIMINE], for which the Activity in series [1] was found to be 25.5%. For the same compound, the LC50 in series [2] is recorded as more than 1000 ppm.
The term LD50 denotes the dose expected to kill half of the subjects tested. Turning to `CC(O)(CC(=O)O)CC(=O)O` [MEGLUTOL], the Activity was -41.7% in series [1]; 11% in series [5]; 13% in [6]; “Non-toxic” in series [7]; 7.9% in [8]; -21% in [9]. Moreover, in [2], the LC50 is 228 ppm. In addition, the LD50 was determined as 7330 mg/kg in series [3] and 3230 mg/kg in series [4].
`O=C(O)CCC(=O)O` [SUCCINIC ACID]: in series [1], the Activity amounted to 9.9%. In addition, in [2], the LC50 is given as 40 ppm.
Consider `CCOC(=O)CC(O)(CC(=O)OCC)C(=O)OCC` [TRIETHYL CITRATE], for which, in series [1], the Activity is recorded as -13.6%.
